Values after ≈ are worked out from the molar mass of the structure shown. Read-outs that look alike come from different tables or passages of the source. Starred links: 1 amine or outer side, 2 acyl side, 3 side chain; linkers in the order of their positions; H or OH if unused. Positions of bridges follow the written chain, without caps; N, C: chain ends. Non-standard residues stand in square brackets, D forms with d. Residues, ends and D or L forms follow the SMILES beside them. ξ: configuration not given here. X4 = CC(C)CCCCCCCCCCC(CC(=O)[*:1])O[*:2]; X2 = CC(C)CCCCCCCCCC(CC(=O)[*:1])O[*:2]; X3 = CC(C)CCCCCCC(CC(=O)[*:1])O[*:2]; ξAsp(3ξ-OH) = NC(C(=O)O)C(O)C(=O)O; X1 = O=C(C1C(O)CCN1[*:1])[*:2]
Experiments:
[1] = tested on: Corynebacterium bovis 1810; test: Minimum growth inhibitory concentration, agar serial dilution; type: cell-based; conditions: Mueller-Hinton agar
Micrococcus luteus FDA16 = test: as above; type: cell-based; conditions: Mueller-Hinton agar
[2] = tested on: Enterococcus faecalis NCTC 12201 (vancomycin-resistant); test: as above; type: cell-based; conditions: NCTC12201, 5% sheep blood-supplemented Mueller-Hinton agar
Shigella sonnei JS11746 = test: as above; type: cell-based; conditions: Mueller-Hinton agar
Experimental: (§1) Minimum growth inhibitory concentrations (μg/ml) of tripropeptin Z against a variety of microorganisms were measured on a Mueller-Hinton agar medium (manufactured by Difco Laboratories) or on a 5% sheep blood-supplemented Mueller-Hinton agar medium (manufactured by Difco Laboratories) for Enterococcus, by a serial dilution method according to the standard method as provided by Japanese Society of Chemotherapy.
as §1, with “A” for “Z”
as §1, with “B” for “Z”
as §1, with “C” for “Z”
as §1, with “D” for “Z”

[3] = tested on: Enterococcus faecium JCM5804; test: as above; type: cell-based; conditions: 5% sheep blood-supplemented Mueller-Hinton agar
[4] = tested on: Enterococcus faecium NCTC 12202 (vancomycin-resistant); test: as above; type: cell-based; conditions: NCTC12202, 5% sheep blood-supplemented Mueller-Hinton agar
[5] = tested on: Staphylococcus aureus MS16526 (methicillin-resistant); test: as above; type: cell-based; conditions: Mueller-Hinton agar
[6] = tested on: Staphylococcus aureus TY-04282 (methicillin-resistant); test: as above; type: cell-based; conditions: Mueller-Hinton agar
[7] = tested on: Staphylococcus aureus FDA209P; test: as above; type: cell-based; conditions: Mueller-Hinton agar
[8] = tested on: Klebsiella pneumoniae PCI602; test: as above; type: cell-based; conditions: Mueller-Hinton agar
[9] = tested on: Staphylococcus aureus TY-03456 (methicillin-resistant); test: as above; type: cell-based; conditions: read-out: Minimum growth inhibitory concentration
[10] = tested on: Staphylococcus aureus MS16460 (methicillin-resistant); test: as above; type: cell-based; conditions: read-out: Minimum growth inhibitory concentration
[11] = tested on: Enterococcus faecalis NCTC 12203 (vancomycin-resistant); test: as above; type: cell-based; conditions: NCTC12203, 5% sheep blood-supplemented Mueller-Hinton agar
[12] = tested on: Staphylococcus aureus TY-00933 (methicillin-resistant); test: as above; type: cell-based; conditions: read-out: Minimum growth inhibitory concentration
[13] = tested on: Staphylococcus aureus MS9610 (multi-drug-resistant); test: as above; type: cell-based; conditions: Mueller-Hinton agar
Bacillus subtilis PCI219 = test: as above; type: cell-based; conditions: Mueller-Hinton agar
[14] = tested on: Staphylococcus aureus TY-03454 (methicillin-resistant); test: as above; type: cell-based; conditions: Mueller-Hinton agar
[15] = tested on: mice (ICR type, 4 weeks-aged, male); conditions: mouse, in vivo, iv, 300 mg/kg
From the text: However, an optimal dose of a tripropeptin can be decided by experts through suitable preliminary tests.

[16] = tested on: Bacillus cereus ATCC10702; test: Minimum growth inhibitory concentration, agar serial dilution; type: cell-based
[17] = tested on: Staphylococcus aureus Smith; test: as above; type: cell-based; conditions: Mueller-Hinton agar
[18] = tested on: Enterococcus faecalis JCM5803; test: as above; type: cell-based; conditions: 5% sheep blood-supplemented Mueller-Hinton agar
[19] = tested on: Staphylococcus aureus MS16497 (methicillin-resistant); test: as above; type: cell-based; conditions: Mueller-Hinton agar
[20] = tested on: Enterococcus faecium NCTC 12204 (vancomycin-resistant); test: as above; type: cell-based; conditions: NCTC12204, 5% sheep blood-supplemented Mueller-Hinton agar
Bacillus anthracis = test: microbe, parasite or virus in culture; type: cell-based; conditions: read-out: Minimum growth inhibitory concentration
Salmonella typhi T-63 = test: Minimum growth inhibitory concentration, agar serial dilution; type: cell-based; conditions: Salmonella enterica, Mueller-Hinton agar
[21] = Bacillus cereus, ATCC10702, read-out: Minimum growth inhibitory concentration
[22] = Staphylococcus aureus TY-03456 (methicillin-resistant), Mueller-Hinton agar
[23] = Staphylococcus aureus TY-00933 (methicillin-resistant), Mueller-Hinton agar

## CC(C)CCCCCCCCCC1CC(=O)NC(C(C)O)C(=O)N2CCCC2C(=O)N2CCCC2C(=O)NC(CCCNC(=N)N)C(=O)NC(C(O)C(=O)O)C(=O)NC(CO)C(=O)N2CCC(O)C2C(=O)NC(C(O)C(=O)O)C(=O)O1 (stereo not shown) [Tripropeptin C] (TPPR[ξAsp(3ξ-OH)]S[X1][ξAsp(3ξ-OH)]; linker N-C via X2; configuration not given here)
[1]
  MIC: 0.39 µg/mL (≈ 0.338 µM)
Micrococcus luteus FDA16
  MIC: 0.2 µg/mL (≈ 0.173 µM)
[2]
  MIC: 6.25 µg/mL (≈ 5.41 µM)
Shigella sonnei JS11746
  MIC: > 100 µg/mL
[3]
  MIC: 12.5 µg/mL (≈ 10.8 µM)
[4]
  MIC: 12.5 µg/mL (≈ 10.8 µM)
[5]
  MIC: 1.56 µg/mL (≈ 1.35 µM)
[6]
  MIC: 1.56 µg/mL (≈ 1.35 µM)
[7]
  MIC: 1.56 µg/mL (≈ 1.35 µM)
[8]
  MIC: > 100 µg/mL
[9]; Staphylococcus aureus
  MIC: 3.13 µg/mL (≈ 2.71 µM)
[10]; Staphylococcus aureus
  MIC: 3.13 µg/mL (≈ 2.71 µM)
[11]
  MIC: 25 µg/mL (≈ 21.7 µM)
[12]; Staphylococcus aureus
  MIC: 3.13 µg/mL (≈ 2.71 µM)
[13]
  MIC: 1.56 µg/mL (≈ 1.35 µM)
Bacillus subtilis PCI219
  MIC: 1.56 µg/mL (≈ 1.35 µM)
[14]
  MIC: 1.56 µg/mL (≈ 1.35 µM)
[15]
  Toxicity: did not exhibit any toxicity
[16]; [21]
  MIC: 3.13 µg/mL (≈ 2.71 µM)
[17]
  MIC: 1.56 µg/mL (≈ 1.35 µM)
[18]
  MIC: 12.5 µg/mL (≈ 10.8 µM)
[19]
  MIC: 1.56 µg/mL (≈ 1.35 µM)
[20]
  MIC: 12.5 µg/mL (≈ 10.8 µM)
Bacillus anthracis
  MIC: 3.13 µg/mL (≈ 2.71 µM)
Salmonella typhi T-63
  MIC: > 100 µg/mL

## CC(C)CCCCCCCCCCC1CC(=O)NC(C(C)O)C(=O)N2CCCC2C(=O)N2CCCC2C(=O)NC(CCCNC(=N)N)C(=O)NC(C(O)C(=O)O)C(=O)NC(CO)C(=O)N2CCC(O)C2C(=O)NC(C(O)C(=O)O)C(=O)O1 (stereo not shown) [Tripropeptin D] (TPPR[ξAsp(3ξ-OH)]S[X1][ξAsp(3ξ-OH)]; linker N-C via X4; configuration not given here)
[1]
  MIC: 0.2 µg/mL (≈ 0.171 µM)
Micrococcus luteus FDA16
  MIC: 0.2 µg/mL (≈ 0.171 µM)
[2]
  MIC: 3.13 µg/mL (≈ 2.68 µM)
Shigella sonnei JS11746
  MIC: > 100 µg/mL
[3]
  MIC: 6.25 µg/mL (≈ 5.35 µM)
[4]
  MIC: 6.25 µg/mL (≈ 5.35 µM)
[5]
  MIC: 0.78 µg/mL (≈ 0.668 µM)
[6]
  MIC: 0.78 µg/mL (≈ 0.668 µM)
[7]
  MIC: 0.39 µg/mL (≈ 0.334 µM)
[8]
  MIC: > 100 µg/mL
[9]; [22]
  MIC: 0.78 µg/mL (≈ 0.668 µM)
[10]; Staphylococcus aureus
  MIC: 1.56 µg/mL (≈ 1.34 µM)
[11]
  MIC: 6.25 µg/mL (≈ 5.35 µM)
[12]; [23]
  MIC: 0.78 µg/mL (≈ 0.668 µM)
[13]
  MIC: 0.78 µg/mL (≈ 0.668 µM)
Bacillus subtilis PCI219
  MIC: 0.78 µg/mL (≈ 0.668 µM)
[14]
  MIC: 0.78 µg/mL (≈ 0.668 µM)
[16]; [21]
  MIC: 1.56 µg/mL (≈ 1.34 µM)
[17]
  MIC: 0.39 µg/mL (≈ 0.334 µM)
[18]
  MIC: 3.13 µg/mL (≈ 2.68 µM)
[19]
  MIC: 0.78 µg/mL (≈ 0.668 µM)
[20]
  MIC: 6.25 µg/mL (≈ 5.35 µM)
Bacillus anthracis
  MIC: 1.56 µg/mL (≈ 1.34 µM)
Salmonella typhi T-63
  MIC: > 100 µg/mL

## CC(C)CCCCCCC1CC(=O)NC(C(C)O)C(=O)N2CCCC2C(=O)N2CCCC2C(=O)NC(CCCNC(=N)N)C(=O)NC(C(O)C(=O)O)C(=O)NC(CO)C(=O)N2CCC(O)C2C(=O)NC(C(O)C(=O)O)C(=O)O1 (stereo not shown) [Tripropeptin Z] (TPPR[ξAsp(3ξ-OH)]S[X1][ξAsp(3ξ-OH)]; linker N-C via X3; configuration not given here)
[1]
  MIC: 6.25 µg/mL (≈ 5.62 µM)
Micrococcus luteus FDA16
  MIC: < 0.39 µg/mL
[2]
  MIC: 100 µg/mL (≈ 89.9 µM)
Shigella sonnei JS11746
  MIC: > 100 µg/mL
[3]
  MIC: > 100 µg/mL
[4]
  MIC: > 100 µg/mL
[5]
  MIC: 25 µg/mL (≈ 22.5 µM)
[6]
  MIC: 25 µg/mL (≈ 22.5 µM)
[7]
  MIC: 12.5 µg/mL (≈ 11.2 µM)
[8]
  MIC: > 50 µg/mL
[9]; [22]
  MIC: 25 µg/mL (≈ 22.5 µM)
[10]; Staphylococcus aureus MS16460 (methicillin-resistant), Mueller-Hinton agar
  MIC: 50 µg/mL (≈ 45 µM)
[11]
  MIC: > 100 µg/mL
[12]; [23]
  MIC: 25 µg/mL (≈ 22.5 µM)
[13]
  MIC: 25 µg/mL (≈ 22.5 µM)
Bacillus subtilis PCI219
  MIC: 25 µg/mL (≈ 22.5 µM)
[14]
  MIC: 25 µg/mL (≈ 22.5 µM)
[16]; Bacillus cereus ATCC10702, Mueller-Hinton agar, read-out: Minimum growth inhibitory concentration
  MIC: > 50 µg/mL
[17]
  MIC: 6.25 µg/mL (≈ 5.62 µM)
[18]
  MIC: 100 µg/mL (≈ 89.9 µM)
[19]
  MIC: 25 µg/mL (≈ 22.5 µM)
[20]
  MIC: > 100 µg/mL
Bacillus anthracis
  MIC: 100 µg/mL (≈ 89.9 µM)
Salmonella typhi T-63
  MIC: > 50 µg/mL

— patent publication US7271147B2, “Antibiotics, tripropeptins and process for producing the same” (Zaidan Hojin Biseibutsu Kagaku Kenkyu Kai, priority 2000, dated 2007)
